Measured values: US20130116292A1, “NEURORESTORATION WITH R(+) PRAMIPEXOLE” (University of Virginia Patent Foundation, priority 2005, published 2013)

What was measured:
[1] = tested on: mitochondrial transition pore (MTP); details: induced by MPP+ and other stimuli; cited from earlier work
[2] = tested on: dopamine neurons (MPTP toxicity); details: cellular and animal models of increased oxidative stress, including MPTP toxicity to dopamine neurons; cited from earlier work
[3] = tested on: oxidative stress produced by MPP+ (ETC complex I inhibitor); details: both in vitro and in vivo; cited from earlier work
[4] = tested on: D2 family of dopamine receptors; details: cited from earlier work
[5] = tested on: patients with amyotrophic lateral sclerosis (ALS); details: 30 mg/day for up to 8 weeks
Description: Phase I clinical studies with R(+) pramipexole were conducted in patients with amyotrophic lateral sclerosis (ALS), a fatal adult neurodegenerative disease arising from the loss of motor nerve cells. […] These reports included such things as regaining the ability to speak coherently, the ability to climb stairs again, and improved motor skills in their extremities, i.e. hands and/or fingers.

Row | stability in aqueous solutions | Compound | effect on opening of the mitochondrial transition pore (MTP) [1] | neuroprotection [2] | effect on oxidative stress produced by MPP+ [3] | agonism of the D2 family of dopamine receptors [4] | patients reporting improvements in motor function [5] | dopamine agonist activity ([4]; Schneider and Mierau, J. Med. Chem. 1987)
1 | – | CCCN[C@H]1CCc2nc(N)sc2C1 [S(−) PPX] | can block the opening | neuroprotective | reduces oxidative stress | potent agonist | – | –
2 | stable in aqueous solutions | CCCN[C@@H]1CCc2nc(N)sc2C1 [R(+) pramipexole, R-(+)-2-amino-4,5,6,7-tetrahydro-6-propylaminobenzathiazole] | – | – | – | – | approximately half the patients | very little
